# Earlier results in patent publication US5001113A, “Di- or tripeptide renin inhibitors containing lactam conformational restriction in ACHPA” (Merck & Co., Inc., priority 1990, dated 1991).
# Where a SMILES comes first, the peptide text is derived from it. [ ]: non-standard residue; d: D form. The star is where a group is joined. Sta = CC(C)C[C@H](N)[C@@H](O)CC(=O)O; Isovaleryl = CC(C)CC(=O)*
# Test system: hog renin
# Settings: after the injection of hog renin into nephrectomized rats
structure (smiles),measurement,value
CC(C)CC(=O)N[C@H](C(=O)N[C@H](C(=O)N[C@@H](CC(C)C)[C@@H](O)CC(=O)N[C@@H](C)C(=O)N[C@@H](CC(C)C)[C@@H](O)CC(=O)O)C(C)C)C(C)C [pepstatin] (Isovaleryl-VV[Sta]A[Sta]-OH),blood pressure in vivo,reduces blood pressure
